Drawing on patent US9409905B2, “Antibacterial compounds and methods for use” (PTC THERAPEUTICS, INC., priority 2011, dated 2016), this text covers MIC for 6 compounds.

For assay [1], the system named is Escherichia coli (E. coli) BAS849. The assay is described as follows: Antibacterial activity, microbroth dilution MIC (Table 1). Format: cell-based. The conditions noted are these: microbroth dilution, super sensitive Gram-negative E. coli BAS849, read-out: MIC, BAS849. Put shortly: (§1)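 Using broth microdilution, MIC endpoints (μg/mL) mark where visible growth no longer appears; the panel spans sensitive and control Gram-negative strains plus a Gram-positive strain.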
A general note: In broth dilution the organism is exposed to a series of concentrations in liquid medium.

The test system of assay [2] is Staphylococcus aureus (S. aureus) 29213. The description is as above. Format: cell-based. The conditions noted are these: microbroth dilution, Gram-positive S. aureus 29213, read-out: MIC, 29213. Put shortly: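 Broth microdilution against S. aureus 29213, E. coli 25922 and hypersensitive E. coli BAS849. MIC in μg/mL is the lowest drug concentration preventing macroscopically visible growth under test conditions.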

Assay [3] relates to E. coli 25922. The description is as above. It is filed as cell-based, Escherichia coli. The conditions noted are these: Escherichia coli; microbroth dilution; control Gram-negative E. coli 25922 strain; read-out: MIC, 25922. Put shortly: as §1
The subject of assay [4] is E. coli LZ3111. Put plainly: Antibacterial activity, MIC, quinolone resistant strain (Table 2). It is filed as cell-based. The conditions noted are these: Escherichia coli, LZ3111, read-out: MIC LZ3111. A digest of the protocol: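 Growth inhibition assessed by serial drug dilution in broth; endpoint was absence of macroscopically visible growth, reported as MIC, μg/mL.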

In assay [5] the test system is E. coli ELZ4000. Put plainly: Antibacterial activity, MIC, multi-drug resistant clinical isolate (Table 3). Format: cell-based. The conditions noted are these: Escherichia coli, ELZ4000, read-out: MIC ELZ4000. A digest of the protocol:
(§2)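 Values derive from a microbroth dilution method, taking as MIC (μg/mL) the lowest tested concentration without macroscopically visible growth.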

Assay [6] has as its system E. coli ELZ4251. The assay is described as above. It is filed as cell-based. The conditions noted are these: Escherichia coli. Put shortly: as §2
Assay [7] deals with Acinetobacter baumannii (A. baumannii) BAA747. The assay is described as follows: Antibacterial activity, MIC (Table 4). The conditions noted are these: A. baumannii BAA747, read-out: MIC, BAA747. It is filed as cell-based. A digest of the protocol: (§3)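 MIC in μg/mL by microbroth dilution, scored as the lowest level that suppresses visible growth.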
Assay [8] relates to Klebsiella pneumoniae (K. pneumoniae) 35657. The assay is described as follows: Antibacterial activity, MIC (Table 4). It is filed as cell-based. The conditions noted are these: K. pneumoniae 35657, read-out: MIC, 35657. Put shortly: as §3
Assay [9] deals with A. baumannii MXX2240. Put plainly: Antibacterial activity, MIC, resistant strain (Table 4). The conditions noted are these: Acinetobacter baumannii, MXX2240; resistant A. baumannii MMX2240, multi-drug resistant clinical isolate; read-out: MIC, MMX2240. It is filed as cell-based. Put shortly: as §3
The subject of assay [10] is K. pneumoniae MXX1232. The description is as above. The conditions noted are these: Klebsiella pneumoniae, MXX1232; resistant K. pneumoniae MMX1232, multi-drug resistant clinical isolate; read-out: MIC, MMX1232. Format: cell-based. A digest of the protocol: as §3
For assay [11], the system named is Pseudomonas aeruginosa (P. aeruginosa) 27853. Put plainly: Antibacterial activity, MIC (Table 5). It is filed as cell-based. The conditions noted are these: P. aeruginosa 27853, read-out: MIC, 27853. Put shortly:
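Using a microbroth dilution format, the minimum inhibitory concentration was recorded as the lowest tested concentration that stopped visible bacterial growth, expressed in μg/mL.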

For assay [12], the system named is Neisseria meningitidis (N. meningitidis) 13090. The assay is described as follows: Antibacterial activity, MIC (Table 8). It is filed as cell-based. The text has this: The antibacterial activity from a microbroth dilution method may be presented as the minimum inhibitory concentration (MIC in μg/mL). The MIC value is the lowest concentration of drug which prevents macroscopically visible growth under test conditions.
Antibacterial activity of test compounds against the Gram-negative bacteria Haemophilus influenzae (H. influenzae) 49247 is shown in Table 6, Moraxella catarrhalis (M. catarrhalis) 25238 is shown in Table 7 and Neisseria meningitidis (N. meningitidis) 13090 is shown in Table 8.

≈ marks a conversion by molar mass, not a printed value.

As to `CCc1c(-c2ccc3c(c2)cc(CN2CCC(O)C2)n3C)[nH]c(=O)c(C(=O)O)c1O` (stereo not shown) [Cpd 178, 5-ethyl-4-hydroxy-6-(2-((3-hydroxypyrrolidin-1-yl)methyl)-1-methyl-1H-indol-5-yl)-2-oxo-1,2-dihydropyridine-3-carboxylic acid], the MIC in [1] was below 1 µg/mL; in assay [2], 3.5 to 12.5 µg/mL (≈ 8.51 to 30.4 µM); in [3] it was below 1 µg/mL; in [4] it was 3.5 to 12.5 µg/mL (≈ 8.51 to 30.4 µM); in [5] it was 12.5 to 150 µg/mL (≈ 30.4 to 365 µM); in [6], 12.5 to 150 µg/mL (≈ 30.4 to 365 µM). Moreover, the minimal inhibitory concentration (MIC) is 1 to 3.5 µg/mL (≈ 2.43 to 8.51 µM) in [7]; 3.5 to 12.5 µg/mL (≈ 8.51 to 30.4 µM) in assay [8]; 12.5 to 150 µg/mL (≈ 30.4 to 365 µM) in assay [9]; 12.5 to 150 µg/mL (≈ 30.4 to 365 µM) in assay [10]; 3.5 to 12.5 µg/mL (≈ 8.51 to 30.4 µM) in assay [11].
On to `CCc1c(-c2ccc3c(c2)cc2n3CCC2N2CCCC2)[nH]c(=O)c(C(=O)O)c1O` (stereo not shown) [Cpd 304, 5-ethyl-4-hydroxy-2-oxo-6-(1-(pyrrolidin-1-yl)-2,3-dihydro-1H-pyrrolo[1,2-a]indol-7-yl)-1,2-dihydropyridine-3-carboxylic acid], for which the MIC in assay [1] is below 1 µg/mL; in assay [2] it was 12.5 to 150 µg/mL (≈ 30.7 to 368 µM); in [3], below 1 µg/mL; in assay [4], 3.5 to 12.5 µg/mL (≈ 8.59 to 30.7 µM); in assay [5] it was 12.5 to 150 µg/mL (≈ 30.7 to 368 µM); in [6], 12.5 to 150 µg/mL (≈ 30.7 to 368 µM). Moreover, the MIC was in the range of 1 to 3.5 µg/mL (≈ 2.45 to 8.59 µM) in [7]; 3.5 to 12.5 µg/mL (≈ 8.59 to 30.7 µM) in [8]; 12.5 to 150 µg/mL (≈ 30.7 to 368 µM) in [9]; 12.5 to 150 µg/mL (≈ 30.7 to 368 µM) in [10]; 12.5 to 150 µg/mL (≈ 30.7 to 368 µM) in assay [11].
`Cc1c(-c2ccc3c(c2)cc(CNC2CCC2)n3C)[nH]c(=O)c(C(=O)O)c1O` [Cpd 354, 6-(2-((cyclobutylamino)methyl)-1-methyl-1H-indol-5-yl)-4-hydroxy-5-methyl-2-oxo-1,2-dihydropyridine-3-carboxylic acid]: the MIC in assay [1] was below 1 µg/mL; in assay [2], 12.5 to 150 µg/mL (≈ 32.8 to 393 µM); in assay [3] it was 1 to 3.5 µg/mL (≈ 2.62 to 9.18 µM); in assay [4], below 1 µg/mL; in assay [5] it was 3.5 to 12.5 µg/mL (≈ 9.18 to 32.8 µM); in assay [6], below 1 µg/mL. Moreover, the MIC in assay [7] is 1 to 3.5 µg/mL (≈ 2.62 to 9.18 µM); in [8] it was 1 to 3.5 µg/mL (≈ 2.62 to 9.18 µM); in assay [9] it was below 1 µg/mL; in [10], 12.5 to 150 µg/mL (≈ 32.8 to 393 µM); in assay [11] it was 12.5 to 150 µg/mL (≈ 32.8 to 393 µM); in [12], below 1 µg/mL.
As for `Cc1c(-c2ccc3c(c2)cc2n3CC(N)C2)[nH]c(=O)c(C(=O)O)c1O.Cl` (stereo not shown) [Cpd 412, 6-(2-amino-2,3-dihydro-1H-pyrrolo[1,2-a]indol-7-yl)-4-hydroxy-5-methyl-2-oxo-1,2-dihydropyridine-3-carboxylic acid hydrochloride], the MIC in [1] fell in the range of 1 to 3.5 µg/mL; in assay [2] it was 12.5 to 150 µg/mL; in [3], 3.5 to 12.5 µg/mL; in assay [4], 1 to 3.5 µg/mL; in assay [5], 3.5 to 12.5 µg/mL; in assay [6], 3.5 to 12.5 µg/mL. In addition, the MIC in assay [7] lay within 12.5 to 150 µg/mL; in assay [8] it was 3.5 to 12.5 µg/mL; in [9] it was 12.5 to 150 µg/mL; in [10], 12.5 to 150 µg/mL; in assay [11], 12.5 to 150 µg/mL; in assay [12] it was 1 to 3.5 µg/mL.
For the compound `CNC1Cc2cc3cc(-c4[nH]c(=O)c(C(=O)O)c(O)c4C)ccc3n2C1.Cl` (stereo not shown) [Cpd 415, 4-hydroxy-5-methyl-6-(2-(methylamino)-2,3-dihydro-1H-pyrrolo[1,2-a]indol-7-yl)-2-oxo-1,2-dihydropyridine-3-carboxylic acid hydrochloride], the MIC in assay [1] is 1 to 3.5 µg/mL; in assay [2], 12.5 to 150 µg/mL; in assay [3] it was 3.5 to 12.5 µg/mL; in [4] it was below 1 µg/mL; in assay [5], 3.5 to 12.5 µg/mL; in assay [6] it was 1 to 3.5 µg/mL. Moreover, the MIC in assay [7] was 12.5 to 150 µg/mL; in assay [8] it was 3.5 to 12.5 µg/mL; in assay [9], 3.5 to 12.5 µg/mL; in [10] it was 12.5 to 150 µg/mL; in assay [11] it was 12.5 to 150 µg/mL; in assay [12] it was 1 to 3.5 µg/mL.
For the compound `CCc1c(-c2ccc3cc[nH]c3c2)[nH]c(=O)c(C(=O)O)c1O` [Cpd 423, 5-ethyl-4-hydroxy-6-(1H-indol-6-yl)-2-oxo-1,2-dihydropyridine-3-carboxylic acid], the MIC in assay [1] is below 1 µg/mL; in [2], 1 to 3.5 µg/mL (≈ 3.35 to 11.7 µM); in [3], below 1 µg/mL; in assay [4], 1 to 3.5 µg/mL (≈ 3.35 to 11.7 µM); in assay [5], 3.5 to 12.5 µg/mL (≈ 11.7 to 41.9 µM); in assay [6], 1 to 3.5 µg/mL (≈ 3.35 to 11.7 µM). Besides, the MIC was below 1 µg/mL in assay [7]; below 1 µg/mL in assay [8]; 1 to 3.5 µg/mL (≈ 3.35 to 11.7 µM) in assay [9]; 12.5 to 150 µg/mL (≈ 41.9 to 503 µM) in assay [10]; 3.5 to 12.5 µg/mL (≈ 11.7 to 41.9 µM) in assay [11]; below 1 µg/mL in assay [12].

By MIC is commonly meant the least concentration at which growth counts as inhibited.
